Experimental data published in publication PMC5676022, “Pyrrolyl Pyrazoline Carbaldehydes as Enoyl-ACP Reductase Inhibitors: Design, Synthesis and Antitubercular Activity” (The Open Medicinal Chemistry Journal, 2017).
≈ marks a conversion by molar mass, not a printed value.

Tests used:
[1] = test system: M. tuberculosis H37Rv; test: Microplate alamar blue assay (MABA), antitubercular activity; format: cell-based, Mycobacterium tuberculosis; conditions: 5 days at 37 C, lowest concentration preventing colour change blue to pink; for MIC: Mycobacterium tuberculosis, H37RV, 120 h
[2] = test system: human lung cancer cell line A549; test: MTT-based cytotoxicity assay; format: cell-based; conditions: for cytotoxicity towards A549 (in words): A549, up to 100 µg/mL, compared to paclitaxel; for IC50: Homo sapiens, A549, MTT, up to 100 µg/mL, average of three independent experiments
Procedure: Cellular conversion of MTT [3-(4,5-dimethylthiazo-2-yl)-2,5-diphenyl-tetrazolium bromide] into a formazan product was used to estimate cytotoxic activity (IC50) of some of the compounds against cell-line A549 (lung adenocarcinoma) up to concentrations of 100 µg/mL using 5×10^3cells/well in a 96-well flat-bottom micro plate and maintained at 37 °C in 95% humidity and 5% CO2 for overnight using paclitaxel as the positive control.
Certain therapeutic properties are to be determined to examine the antimycobacterial potential of a drug. Toxicity is one of these criteria.

Structure (SMILES)	melting point [°C]	MIC [1] [µg/mL]	cytotoxicity towards A549 (in words) [2]	IC50 [2] [µg/mL]	MIC values M. tuberculosis H37Rv [1] [µg/mL]
Cc1ccc(C2CC(c3ccc(-n4cccc4)cc3)=NN2C=O)cc1 (stereo not shown) [Compound 4f, (4-(1H-pyrrol-1-yl)Phenyl)-5-(p-Tolyl)-4,5-Dihydro-1H-Pyrazole-1-Carbaldehyde]	148 to 150	25 (≈ 75.9 µM)			
COc1cccc(C2CC(c3ccc(-n4cccc4)cc3)=NN2C=O)c1 (stereo not shown) [Compound 4h, (4-(1H-Pyrrol-1-yl)Phenyl)-5-(3-Methoxyphenyl)-4,5-Dihydro-1H-Pyrazole-1-Carbaldehyde]	158 to 160	6.25 (≈ 18.1 µM)	moderate cytotoxicity	76.5 (≈ 222 µM)	6.25 (≈ 18.1 µM)
CC(C)c1ccc(C2CC(c3ccc(-n4cccc4)cc3)=NN2C=O)cc1 (stereo not shown) [Compound 4l, (4-(1H-Pyrrol-1-yl)Phenyl)-5-(4-Isopropylphenyl)-4,5-Dihydro-1H-Pyrazole-1-Carbaldehyde]	140 to 142	100 (≈ 280 µM)	moderate cytotoxicity	71.1 (≈ 199 µM)	
COc1ccc(C2CC(c3ccc(-n4cccc4)cc3)=NN2C=O)cc1OC (stereo not shown) [Compound 4j, (4-(1H-Pyrrol-1-yl) Phenyl)-5-(3,4-Dimethoxyphenyl)-4,5-Dihydro-1H-Pyrazole-1-Carbaldehyde]	133 to 135	12.5 (≈ 33.3 µM)	moderate cytotoxicity	70.4 (≈ 187 µM)	
NC(=O)c1cnccn1 [pyrazinamide, reference compound]		3.12 (≈ 25.4 µM)			
O=CN1N=C(c2ccc(-n3cccc3)cc2)CC1c1cccc(Br)c1 (stereo not shown) [Compound 4m, (4-(1H-Pyrrol-1-yl)Phenyl)-5-(3-Bromophenyl)-4,5-Dihydro-1H-Pyrazole-1-Carbaldehyde]	168 to 170	12.5 (≈ 31.7 µM)	moderate cytotoxicity	76 (≈ 193 µM)	
O=CN1N=C(c2ccc(-n3cccc3)cc2)CC1c1ccc(F)cc1 (stereo not shown) [Compound 4k, (4-(1H-Pyrrol-1-yl)phenyl)-5-(4-Fluorophenyl)-4,5-Dihydro-1H-Pyrazole-1-Carbaldehyde]		12.5 (≈ 37.5 µM)			
COc1ccc(C2CC(c3ccc(-n4cccc4)cc3)=NN2C=O)cc1 (stereo not shown) [Compound 4g, (4-(1H-pyrrol-1-yl)phenyl)-5-(4-Methoxyphenyl)-4,5-Dihydro-1H-Pyrazole-1-Carbaldehyde]	112 to 114	6.25 (≈ 18.1 µM)			6.25 (≈ 18.1 µM)
O=CN1N=C(c2ccc(-n3cccc3)cc2)CC1c1cccc(Oc2ccccc2)c1 (stereo not shown) [Compound 4n, (4-(1H-pyrrol-1-yl)Phenyl)-5-(3-Phenoxyphenyl)-4,5-Dihydro-1H-Pyrazole-1-Carbaldehyde]	128 to 130	12.5 (≈ 30.7 µM)	moderate cytotoxicity	72.9 (≈ 179 µM)	
[H]/N=C(/N)N[C@H]1[C@H](O)[C@@H](O)[C@H](O[C@@H]2O[C@@H](C)[C@](O)(C=O)[C@H]2O[C@@H]2O[C@@H](CO)[C@H](O)[C@@H](O)[C@@H]2NC)[C@@H](N/C(N)=N\[H])[C@@H]1O [streptomycin, reference compound]		6.25 (≈ 10.7 µM)			
O=CN1N=C(c2ccc(-n3cccc3)cc2)CC1c1ccc(Cl)cc1Cl (stereo not shown) [Compound 4d, (4-(1H-pyrrol-1-yl)Phenyl)-5-(2,4-Dichlorophenyl)-4,5-Dihydro-1H-Pyrazole-1-Carbaldehyde]	228 to 230	25 (≈ 65.1 µM)			
O=CN1N=C(c2ccc(-n3cccc3)cc2)CC1c1ccco1 (stereo not shown) [Compound 4o, (4-(1H-Pyrrol-1-yl)phenyl)-5-(Furan-2-yl)-4,5-Dihydro-1H-pyrazole-1-Carbaldehyde]	152 to 154	50 (≈ 164 µM)			
O=CN1N=C(c2ccc(-n3cccc3)cc2)CC1c1ccc(Cl)cc1 (stereo not shown) [Compound 4b, (4-(1H-Pyrrol-1-yl) Phenyl)-5-(4-Chlorophenyl)-4,5-Dihydro-1H-Pyrazole-1-Carbaldehyde]	168 to 170	12.5 (≈ 35.7 µM)	moderate cytotoxicity	75.6 (≈ 216 µM)	
COc1ccc(C2CC(c3ccc(-n4cccc4)cc3)=NN2C=O)c(OC)c1 (stereo not shown) [Compound 4i, (4-(1H-Pyrrol-1-yl)Phenyl)-5-(2,4-Dimethoxyphenyl)-4,5-Dihydro-1H-Pyrazole-1-Carbaldehyde]	160 to 162	3.12 (≈ 8.32 µM)	moderate cytotoxicity	73.3 (≈ 195 µM)	3.125 (≈ 8.32 µM)
O=CN1N=C(c2ccc(-n3cccc3)cc2)CC1c1c(Cl)cccc1Cl (stereo not shown) [Compound 4e, (4-(1H-pyrrol-1-yl)Phenyl)-5-(2,6-Dichlorophenyl)-4,5-Dihydro-1H-Pyrazole-1-Carbaldehyde]	208 to 210	25 (≈ 65.1 µM)			
O=CN1N=C(c2ccc(-n3cccc3)cc2)CC1c1cccc(Cl)c1Cl (stereo not shown) [Compound 4c, (4-(1H-pyrrol-1-yl)phenyl)-5-(2,3-Dichlorophenyl)-4,5-Dihydro-1H-Pyrazole-1-Carbaldehyde]	163 to 165	12.5 (≈ 32.5 µM)			
CC(=O)O[C@H]1C(=O)[C@@]2(C)[C@H]([C@H](OC(=O)c3ccccc3)[C@]3(O)C[C@H](OC(=O)[C@H](O)[C@@H](NC(=O)c4ccccc4)c4ccccc4)C(C)=C1C3(C)C)[C@]1(OC(C)=O)CO[C@@H]1C[C@@H]2O [paclitaxel, reference compound]				47.6 (≈ 55.8 µM)	
O=CN1N=C(c2ccc(-n3cccc3)cc2)CC1c1ccccc1 (stereo not shown) [Compound 4a, 3-(4-(1H-Pyrrol-1-yl) Phenyl)-5-Phenyl-4,5-Dihydro-1H-Pyrazole-1-Carbaldehydes]	178 to 180	100 (≈ 317 µM)			
